# Laboratory results: US6043235A, “11β-aryl-17, 17-spirothiolane-substituted steroids” (Research Triangle Institute, priority 1999, dated 2000)
# How the values were obtained:
# [1] = biological target: T1, Human Progestin Receptor in T47-D Cells (Homo sapiens, UniProt P06401); assay: Whole cell receptor binding (competition with 3H-R5020) in T-47D human breast carcinoma cells; conditions: for IC50: 50% displacement of 3H-R5020, T-47D cells, overnight incubation; for Relative Binding % Prog.: RBA relative to internal standard progesterone; for Relative Binding % Prog. / Relative Binding % R5020: ratio of concentrations causing 50% displacement, compared in the same assay; for Relative Binding % R5020: RBA relative to reference standard R5020 (promegestone)
# T1 construct: The human breast carcinoma (T-47D) cell line was used to assess RBA for progestin receptor; host or cells: T-47D human breast carcinoma cells
# T1 sequence (P06401 1-933): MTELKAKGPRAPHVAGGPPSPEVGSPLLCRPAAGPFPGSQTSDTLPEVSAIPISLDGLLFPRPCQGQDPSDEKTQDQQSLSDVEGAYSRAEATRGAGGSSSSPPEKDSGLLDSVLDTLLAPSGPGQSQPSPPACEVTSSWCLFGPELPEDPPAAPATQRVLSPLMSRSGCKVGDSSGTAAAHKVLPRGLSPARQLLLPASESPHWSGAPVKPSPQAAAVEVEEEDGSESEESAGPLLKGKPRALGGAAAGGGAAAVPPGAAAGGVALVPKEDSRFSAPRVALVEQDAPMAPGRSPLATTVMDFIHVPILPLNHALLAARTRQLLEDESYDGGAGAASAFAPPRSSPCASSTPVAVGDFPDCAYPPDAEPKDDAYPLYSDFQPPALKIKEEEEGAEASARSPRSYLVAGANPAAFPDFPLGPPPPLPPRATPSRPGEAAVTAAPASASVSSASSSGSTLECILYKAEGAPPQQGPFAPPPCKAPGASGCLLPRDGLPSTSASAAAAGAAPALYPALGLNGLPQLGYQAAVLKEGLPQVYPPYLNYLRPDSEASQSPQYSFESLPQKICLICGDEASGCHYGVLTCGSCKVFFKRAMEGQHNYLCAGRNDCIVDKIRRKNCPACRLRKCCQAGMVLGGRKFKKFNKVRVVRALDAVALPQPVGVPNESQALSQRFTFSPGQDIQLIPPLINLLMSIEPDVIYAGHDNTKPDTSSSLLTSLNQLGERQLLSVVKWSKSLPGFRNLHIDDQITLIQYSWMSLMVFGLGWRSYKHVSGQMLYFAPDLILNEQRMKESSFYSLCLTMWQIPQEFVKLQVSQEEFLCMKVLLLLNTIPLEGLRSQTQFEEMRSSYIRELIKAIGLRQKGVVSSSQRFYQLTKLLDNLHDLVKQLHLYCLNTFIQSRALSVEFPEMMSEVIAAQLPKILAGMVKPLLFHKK
# Experimental: The biological activity of the compounds of this invention was examined by means of whole cell receptor binding studies.
# Receptor Binding. The affinity of the compounds for hormone receptors was determined by standard procedures similar to those that have been described, inter alia, by Wagner et al., Proc. Natl. Acad. Sci., 93, 8739-8744 (1996) for COS-1 cells. The human breast carcinoma (T-47D) cell line was used to assess RBA for progestin receptor. The cell line used was obtained from ATCC (American Type Culture Collection) and stored frozen at -135° C. until a week before the assays were conducted. The cells were thawed and cultured to achieve the desired cell number (5 to 7 days on average). They were maintained at 37° C. with growth media until they were 90-100% confluent, at which time they were recovered from the growth flasks and dispersed into individual wells of a 12-well tissue culture plate at a count of 4×10^5 cells in one mL medium per well. After 24 h the cells adhered to the bottom of the 12-well plates. At this point, the receptor binding assay procedure was initiated by the addition of test or standard compounds with 3H-R5020 (promegestone). After incubation overnight, medium was removed, the cells were washed and solubilized and radioactivity was measured by liquid scintillation spectrometry. Nonspecific binding was determined by incubation with excess of unlabeled R5020 and subtracted from total binding to calculate specific binding. The progesterone binding assay was conducted with several concentrations of the reference standard (promegestone, R-5020) and an internal standard (progesterone). These hormones were allowed to compete with tritiated competitor (3H-promegestone, 3H-R5020) to estimate relative binding. Test steroids were tested at three or more concentrations between 0.01 to 1000 nM. If 50% displacement of the 3H-R5020 from the receptor was not achieved by the unknown, higher or lower concentrations were tested, as needed, to obtain that goal. All compounds were tested in duplicate for at least two assays. The percentage of specifically bound 3H-R5020 for each concentration tested was calculated and binding curves were generated by plotting the percentage of specifically bound 3H-R-5020 versus the concentration of the competitor. The relative binding activity (RBA) of the test compounds, relative to the reference standard (R5020) as well as the internal standard, was determined from the ratio of concentrations causing 50% displacement for each unknown and standard and expressed as a percentage value. These concentrations were obtained by graphical interpolation of the plots.
# human progestin receptor = conditions: % the affinity of progesterone; Smith et al., J. Biol. Chem. 1974; cited from earlier work
IC50 [1] [nM],Relative Binding % Prog. [1] [%],Relative Binding % R5020 [1] [%],Compound,"affinity relative to progesterone, binding to human progestin receptor (human progestin receptor) [%]"
135,25,2,"CC(=O)c1ccc([C@H]2C[C@@]3(C)[C@@H](CC[C@@]34CCC[S+]4[O-])[C@@H]3CCC4=CC(=O)CCC4=C32)cc1 (single isomer, unassigned) [Compound 22b, 11β-(4-Acetylphenyl)-1'-oxo-spiro[estra-4,9-diene-17β,2'-thiolane]-3-one]",
3.1,825,128,"CN(C)c1ccc([C@H]2C[C@@]3(C)[C@@H](CC[C@@]34CCC[S+]4[O-])[C@@H]3CCC4=CC(=O)CCC4=C32)cc1 (single isomer, unassigned) [Compound 21a, 11β-[4-(N,N-Dimethylamino)phenyl]-1'-oxo-spiro[estr-4,9-diene-17β,2'-thiolane]-3-one]",
4.1,651,49,"CSc1ccc([C@H]2C[C@@]3(C)[C@@H](CC[C@@]34CCCS4)[C@@H]3CCC4=CC(=O)CCC4=C32)cc1 [Compound 14, 11β-[4-(Methylthio)phenyl]-spiro[estra-4,9-diene-17β,2'-thiolane]-3-one]",

# The next lines start with the molecule.
Compound,IC50 [1] [nM],Relative Binding % Prog. [1] [%],Relative Binding % R5020 [1] [%],"affinity relative to progesterone, binding to human progestin receptor (human progestin receptor) [%]"
"CN(C)c1ccc([C@H]2C[C@@]3(C)[C@@H](CC[C@@]34CCCS4(=O)=O)[C@@H]3CCC4=CC(=O)CCC4=C32)cc1 [Compound 24, 1',1'-Dioxo-11β-[4-(N,N-dimethylamino)phenyl]-spiro[estra-4,9-diene-17β,2'-thiolane]-3-one]",13,199,29,
"CN(C)c1ccc([C@H]2C[C@@]3(C)[C@@H](CC[C@@]34CCCS4)[C@@H]3CCC4=CC(=O)CCC4=C32)cc1 [Compound 12, 11β-[4-(N,N-Dimethylamino)phenyl]-spiro[estra-4,9-diene-17β,2'-thiolane]-3-one]",2.8,983,105,
"CC(=O)c1ccc([C@H]2C[C@@]3(C)[C@@H](CC[C@@]34CCC[S+]4[O-])[C@@H]3CCC4=CC(=O)CCC4=C32)cc1 (single isomer, unassigned) [Compound 22a, 11β-(4-Acetylphenyl)-1'-oxo-spiro[estra-4,9-diene-17β,2'-thiolane]-3-one]",183,19,2,
CSC1CCC2C3CCC4=CC(=O)CCC4(C)C3CCC12C (stereo not shown) [17-thiomethylandrost-4-en-3-one],,,,25
"CN(C)c1ccc([C@H]2C[C@@]3(C)[C@@H](CC[C@@]34CCC[S+]4[O-])[C@@H]3CCC4=CC(=O)CCC4=C32)cc1 (single isomer, unassigned) [Compound 21b, 11β-[4-(N,N-Dimethylamino)phenyl]-1'-oxo-spiro[estr-4,9-diene-17β,2'-thiolane]-3-one]",6.6,260,43,
